For 14 compounds, TGI results are on record in PubChem BioAssay (NCI).

Each structure is given as a SMILES string.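 A five-concentration, 48-hour dose response in 96-well plates underlies each endpoint, interpolated linearly between surrounding concentrations. TGI is the concentration that stops growth completely.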

Some test systems named below: NCI-H226 lung; HOP-62 NSCLC; HCT-15 colon; UACC-257 melanoma; BT-549 breast; SF-268 CNS; SK-MEL-5 melanoma; RXF 393 renal; OVCAR-5 ovarian; SF-539 CNS.
Assay in all cases: inhibition of tumour cell growth, NCI panel, 48 h

With `COc1cc(Nc2cnc3cc(F)c(F)cc3n2)cc(OC)c1OC`, the TGI with NCI-H226 lung, with HOP-62 NSCLC, in the test on HCT-15 colon, in the test with UACC-257 melanoma, with BT-549 breast and with SF-268 CNS was over 100 µM in each case. The TGI in the test with SK-MEL-5 melanoma, in the test with RXF 393 renal, in the test with OVCAR-5 ovarian and in the test with SF-539 CNS was over 100 µM each time.
On to `CCSc1n/c(=C\c2ccco2)c2nnnn12`, for which the TGI in the test with NCI-H226 lung, in the test on HOP-62 NSCLC, with HCT-15 colon, in the test with UACC-257 melanoma, with BT-549 breast and with SF-268 CNS was over 100 µM throughout. In addition, the TGI in the test on SK-MEL-5 melanoma, in the test on RXF 393 renal, in the test on OVCAR-5 ovarian and in the test on SF-539 CNS was over 100 µM in each case.
For the compound `Nc1nc(N)c2[nH]c(CNc3ccc(C(=O)O)cc3)nc2n1`, the TGI in the test with NCI-H226 lung, in the test on HOP-62 NSCLC, in the test on HCT-15 colon, in the test on UACC-257 melanoma, in the test with BT-549 breast and with SF-268 CNS was over 100 µM in each case. Also, the TGI in the test on SK-MEL-5 melanoma, with RXF 393 renal, with OVCAR-5 ovarian and with SF-539 CNS was over 100 µM each time.
Consider `O=C(O)c1nc(-c2ccccc2)ncc1-c1nnnn1-c1ccccc1`, for which the TGI in the test with NCI-H226 lung, with HOP-62 NSCLC, in the test on HCT-15 colon, with UACC-257 melanoma, in the test on BT-549 breast and in the test with SF-268 CNS was over 100 µM in each case. In addition, the TGI in the test on SK-MEL-5 melanoma, in the test with RXF 393 renal, with OVCAR-5 ovarian and in the test on SF-539 CNS was over 100 µM throughout.
With `CCCCCCCCCCCCCCCCCCNc1ccn(C2OC(COP(=O)(O)OCC3OC(n4cc(C)c(=O)[nH]c4=O)CC3O)C(O)C2O)c(=O)n1` (stereo not given), the TGI came to 42.1 µM in the test on NCI-H226 lung; 32.4 µM in the test with HOP-62 NSCLC; 33.5 µM in the test on HCT-15 colon; 37.1 µM with UACC-257 melanoma; 29.9 µM in the test with BT-549 breast; 32.4 µM in the test on SF-268 CNS. In addition, the TGI came out at 28.1 µM in the test on SK-MEL-5 melanoma, 25.9 µM with RXF 393 renal, 28.2 µM in the test on OVCAR-5 ovarian and 31.5 µM in the test on SF-539 CNS.
Regarding `c1ccc2sc(C3(N4CCCC4)CCCCCC3)cc2c1`, the TGI in the test on NCI-H226 lung is 40.3 µM; in the test on HOP-62 NSCLC, 36.1 µM; in the test with HCT-15 colon, 56.5 µM; with UACC-257 melanoma, 31 µM; in the test on BT-549 breast, 51.9 µM; in the test on SF-268 CNS, 35.9 µM. For the same compound, the TGI with SK-MEL-5 melanoma worked out at 33.9 µM; in the test with RXF 393 renal, 25.7 µM; with OVCAR-5 ovarian, 25.2 µM; with SF-539 CNS it was 41.2 µM.
`COC(=O)C(C)(NC(=O)C(CC(=O)OC(C)(C)C)NC(=O)OC(C)(C)C)c1ccccc1` (stereo not given): the TGI in the test with NCI-H226 lung, in the test on HOP-62 NSCLC, with HCT-15 colon, in the test with UACC-257 melanoma, in the test on BT-549 breast and with SF-268 CNS was over 100 µM in each case. The TGI in the test with SK-MEL-5 melanoma, with RXF 393 renal, with OVCAR-5 ovarian and with SF-539 CNS was over 100 µM each time.
For the compound `CCCCCN=Cc1c(O)c(O)c(C(C)C)c2cc(C)c(-c3c(C)cc4c(C(C)C)c(O)c(O)c(C=NCCCCC)c4c3O)c(O)c12`, the TGI in the test with NCI-H226 lung was 88.4 µM; with HOP-62 NSCLC, over 100 µM; in the test on HCT-15 colon, 78 µM; in the test with UACC-257 melanoma, 46.2 µM; with BT-549 breast it was 38.7 µM; in the test on SF-268 CNS, 47.3 µM. Also, the TGI in the test with SK-MEL-5 melanoma is 28.1 µM; with RXF 393 renal it was 46.8 µM; in the test with OVCAR-5 ovarian, over 100 µM; with SF-539 CNS, over 100 µM.
Consider `COc1ccc(N=C2SC(=N/N=c3\sc4ccccc4n3C)SC2=Nc2ccc(OC)cc2)cc1`, for which the TGI in the test on NCI-H226 lung, in the test on HOP-62 NSCLC, in the test on HCT-15 colon, in the test on UACC-257 melanoma, with BT-549 breast and with SF-268 CNS was over 100 µM in each case. For the same compound, the TGI in the test with SK-MEL-5 melanoma, with RXF 393 renal, in the test on OVCAR-5 ovarian and in the test on SF-539 CNS was over 100 µM each time.
Turning to `COc1ccc2nc3ccc(OC)cc3c(S(=O)CCCl)c2c1` (stereo not given), the TGI in the test on NCI-H226 lung is 33.9 µM; with HOP-62 NSCLC, 36.8 µM; in the test on HCT-15 colon, over 20.6 µM; in the test with UACC-257 melanoma, 5.38 µM; with BT-549 breast, 30.3 µM; in the test on SF-268 CNS, 28.2 µM. In addition, the TGI in the test on SK-MEL-5 melanoma stood at 28.2 µM; in the test on RXF 393 renal it was 16.2 µM; in the test with OVCAR-5 ovarian, 34.5 µM; with SF-539 CNS, 4.59 µM.
With `COc1cc(/C=C2\CCC(C)C3C2=NN(C(C)=O)C3c2cc(OC)c(OC)c(OC)c2)cc(OC)c1OC` (stereo not given), the TGI in the test on NCI-H226 lung, with HOP-62 NSCLC, in the test on HCT-15 colon, with UACC-257 melanoma, in the test on BT-549 breast and in the test with SF-268 CNS was over 100 µM in each case. The TGI with SK-MEL-5 melanoma is over 100 µM; with RXF 393 renal, over 100 µM; with OVCAR-5 ovarian, over 36.3 µM; in the test on SF-539 CNS, over 100 µM.
Take `COc1ccc(C(C)NNC(=O)c2ccncc2)c(OC)c1` (stereo not given): the TGI with NCI-H226 lung, in the test on HOP-62 NSCLC, in the test on HCT-15 colon, in the test on UACC-257 melanoma, in the test on BT-549 breast and in the test on SF-268 CNS was over 100 µM throughout. Besides, the TGI in the test with SK-MEL-5 melanoma, with RXF 393 renal, in the test with OVCAR-5 ovarian and in the test with SF-539 CNS was over 100 µM each time.
For the compound `O=[N+]([O-])c1cc2oc(COc3ccccc3)nc2cc1Cl`, the TGI in the test on NCI-H226 lung is 51.3 µM; in the test on HOP-62 NSCLC, 50.6 µM; with HCT-15 colon, 43.3 µM; in the test on UACC-257 melanoma, 63.4 µM; in the test on BT-549 breast it was 60 µM; in the test on SF-268 CNS, over 100 µM. The TGI in the test with SK-MEL-5 melanoma is 25.5 µM; with RXF 393 renal it was 69.5 µM; in the test with OVCAR-5 ovarian, over 100 µM; with SF-539 CNS, 45.8 µM.
With `COc1ccc(CC2c3cc(Oc4cc(CC5c6cc(OC)c(OC)cc6CCN5C)ccc4O)c(OC)cc3CCN2C)cc1` (stereo not given), the TGI in the test with NCI-H226 lung was 18.6 µM; in the test with HOP-62 NSCLC, 14.9 µM; with HCT-15 colon, 4.6 µM; with UACC-257 melanoma it was 15 µM; in the test with BT-549 breast it was 13.4 µM; in the test with SF-268 CNS, 17 µM. In addition, the TGI with SK-MEL-5 melanoma amounted to 14.4 µM; in the test with RXF 393 renal, 12 µM; in the test with OVCAR-5 ovarian, 16.6 µM; in the test with SF-539 CNS it was 16.8 µM.
